The source of these data is patent publication US20100022483A1, “Substituted Tetracycline Compounds” (Paratek Pharmaceuticals, Inc., priority 2008, published 2010).

Structures are written as SMILES. Converted amounts (≈) assume the structure as drawn. Where two headings read alike, the source gives them in different places.

The test system of one series is gram positive bacteria. In words: In vitro anti-bacterial activity assay (broth dilution MIC), gram positive bacteria. The series is classed as cell-based, S. aureus. The note with it: 18 h. The method in brief: (§1)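 Broth dilution MIC following CLSI M7-A2: compounds serially diluted, log-phase test strains added to final ~5×10^5 CFU/ml, incubated ~18 hours at 35° C in ambient air. Plates read on microplate reader or visually; MIC is lowest concentration inhibiting growth.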
A general note: Broth dilution looks for growth in wells or tubes with falling amounts of substance.

The next series in a line: in vitro. The settings on record: Chinese hamster, Cytotox. CHO-K1. The class given is cell-based.
Series [1] can be described thus: Mammalian cytotoxicity assay (resazurin), COS-1 cells. The class given is cell-based. The note with it: African green monkey, read-out: Cytotox. COS-1. The method in brief: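 Resazurin read-out (0.042 mg/ml, 2 h at 37° C. then 30 min dark, room temperature; fluorescence 535/590 nm) follows 24-hour compound exposure of overnight-seeded cells, serially diluted. IC50 is the concentration giving 50% growth inhibition.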
A general note: Alamar Blue is a resazurin reagent that responds to reducing activity.

For the next series, the system named is 3T3 fibroblast cells. Put plainly: In vitro phototoxicity assay (neutral red; UV light-treated vs dark control plates). The settings on record: for Photo Toxicity UV Tox50: UV light 50 minutes; for Photo Toxicity Dark Tox50: dark control plate. The series is classed as cell-based. A digest of the protocol:
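Neutral red viability readout (A535 after EtOH/acetic acid extraction) compares paired plates: one exposed 50 min to UV at 1.6–1.8 mW/cm^2, one held in darkness, both dosed with compound in HBSS and recovered overnight. 3T3 fibroblast cells used; phototoxicity taken as the difference.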

In the next series the test system is gram negative bacteria. Put plainly: In vitro anti-bacterial activity assay (broth dilution MIC), gram negative bacteria. The class given is cell-based, E. coli. The method in brief:
as §1

The mark [2] stands for this setting: Staphylococcus aureus, S. aureus MRSA5, read-out: Median MIC's G+ S. aureus MRSA5.
Setting [3] is: Staphylococcus aureus, S. aureus RN450, read-out: Median MIC's G+ S. aureus RN450.
Setting [4] is: Streptococcus pneumoniae, S. pneumoniae 157E-Strep, read-out: Median MIC's G+ S. pneumoniae 157E-Strep.
Setting [5] is: Escherichia coli, 18 h, E. coli D1 209, read-out: Median MIC's G− E. coli D1 209.
[6] abbreviates: Escherichia coli, 18 h, E. coli MG 1655, read-out: Median MIC's G− E. coli MG 1655.
Where [7] appears, read: Escherichia coli, ATCC25922, 18 h, E. coli ATCC 25922, read-out: Median MIC's G− E. coli ATCC 25922.
Setting [8] is: Pseudomonas aeruginosa, 18 h, P. aeruginosa K201 PAO6609, read-out: Median MIC's G− P. aeruginosa K201 PAO6609.

For `CN1CCN(Cc2cccc(-c3ccc(O)c4c3C[C@H]3C[C@H]5[C@H](N(C)C)C(O)=C(C(N)=O)C(=O)[C@@]5(O)C(O)=C3C4=O)c2)CC1` [DK], the MIC in the series with gram positive bacteria (setting [2]) is 4 µg/mL (≈ 6.64 µM); with gram positive bacteria (setting [3]), 0.0625 µg/mL (≈ 0.104 µM); in the series with gram positive bacteria (setting [4]), 0.06 µg/mL (≈ 0.0996 µM); in the series with gram negative bacteria (setting [5]), 2 µg/mL (≈ 3.32 µM); with gram negative bacteria (setting [6]), 4 µg/mL (≈ 6.64 µM); in the series on gram negative bacteria (setting [7]) it was 1 µg/mL (≈ 1.66 µM). The MIC with gram negative bacteria (setting [8]) worked out at 64 µg/mL (≈ 106 µM). The figures for the IC50 at 24 h (in “in vitro”; in series [1]) were 92.3 µM and above 200 µM, respectively. In addition, the “Photo Toxicity UV Tox50” value in the series on 3T3 fibroblast cells was above 200 µM. The “Photo Toxicity Dark Tox50” value in the series on 3T3 fibroblast cells was above 200 µM.

In the case of `CN1CCN(CC(=O)c2ccc(O)c3c2C[C@H]2C[C@H]4[C@H](N(C)C)C(O)=C(C(N)=O)C(=O)[C@@]4(O)C(O)=C2C3=O)CC1` [BB], the MIC in the series with gram positive bacteria (setting [2]) was 16 µg/mL (≈ 28.8 µM); in the series on gram positive bacteria (setting [3]), 2 µg/mL (≈ 3.61 µM); in the series on gram positive bacteria (setting [4]), 1 µg/mL (≈ 1.8 µM); with gram negative bacteria (setting [5]) it was 64 µg/mL (≈ 115 µM); with gram negative bacteria (setting [6]), 8 µg/mL (≈ 14.4 µM); in the series with gram negative bacteria (setting [7]), 32 µg/mL (≈ 57.7 µM). The MIC in the series on gram negative bacteria (setting [8]) amounted to 64 µg/mL (≈ 115 µM). In addition, the IC50 at 24 h (in the series “in vitro”; in series [1]) was above 136 µM each time. For the same molecule, the “Photo Toxicity UV Tox50” value in the series with 3T3 fibroblast cells was above 135.54 µM. Further, in the series on 3T3 fibroblast cells, the “Photo Toxicity Dark Tox50” value is above 135.54 µM.

Regarding `CCN(CC)CCNC(=O)c1cccc(-c2ccc(O)c3c2C[C@H]2C[C@H]4[C@H](N(C)C)C(O)=C(C(N)=O)C(=O)[C@@]4(O)C(O)=C2C3=O)c1` [E, (4S,4aS,5aR,12aS)-7-[3-(2-Diethylamino-ethylcarbamoyl)-phenyl]-4-dimethylamino-3,10,12,12a-tetrahydroxy-1,1′-dioxo-1,4,4a,5,5a,6,11,12a-octahydro-naphthacene-2-carboxylic acid amide], the minimum inhibitory concentration (MIC) was determined as 16 µg/mL (≈ 25.3 µM) in the series on gram positive bacteria (setting [2]); 0.5 µg/mL (≈ 0.79 µM) in the series with gram positive bacteria (setting [3]); 0.125 µg/mL (≈ 0.198 µM) in the series with gram positive bacteria (setting [4]); 64 µg/mL (≈ 101 µM) with gram negative bacteria (setting [5]); 8 µg/mL (≈ 12.6 µM) in the series with gram negative bacteria (setting [6]); 8 µg/mL (≈ 12.6 µM) with gram negative bacteria (setting [7]). Further, the minimum inhibitory concentration (MIC) in the series on gram negative bacteria (setting [8]) came out at 64 µg/mL (≈ 101 µM). In addition, the IC50 at 24 h (in the series “in vitro”; in series [1]) was above 139 µM throughout. In addition, the “Photo Toxicity UV Tox50” value with 3T3 fibroblast cells is above 138.88 µM. In addition, in the series with 3T3 fibroblast cells, the “Photo Toxicity Dark Tox50” value was above 138.88 µM.

As to `CN(Cc1cccnc1)Cc1cccc(-c2ccc(O)c3c2C[C@H]2C[C@H]4[C@H](N(C)C)C(O)=C(C(N)=O)C(=O)[C@@]4(O)C(O)=C2C3=O)c1` [BJ], the minimum inhibitory concentration (MIC) in the series on gram positive bacteria (setting [2]) worked out at 2 µg/mL (≈ 3.2 µM); with gram positive bacteria (setting [3]), 0.25 µg/mL (≈ 0.4 µM); in the series with gram positive bacteria (setting [4]), 0.06 µg/mL (≈ 0.096 µM); in the series on gram negative bacteria (setting [5]), 32 µg/mL (≈ 51.2 µM); in the series with gram negative bacteria (setting [6]) it was 64 µg/mL (≈ 102 µM); with gram negative bacteria (setting [7]) it was 16 µg/mL (≈ 25.6 µM). For the same molecule, the MIC in the series with gram negative bacteria (setting [8]) is 64 µg/mL (≈ 102 µM). Further, the IC50 at 24 h in the series “in vitro” is above 25.1 µM; in series [1], above 12.3 µM. In addition, the “Photo Toxicity UV Tox50” value in the series with 3T3 fibroblast cells was above 122.6 µM. The “Photo Toxicity Dark Tox50” value in the series with 3T3 fibroblast cells is above 122.6 µM.

With `COCCNCC(=O)c1ccc(O)c2c1C[C@H]1C[C@H]3[C@H](N(C)C)C(O)=C(C(N)=O)C(=O)[C@@]3(O)C(O)=C1C2=O` [AG], the MIC was 64 µg/mL (≈ 121 µM) in the series on gram positive bacteria (setting [2]); 4 µg/mL (≈ 7.55 µM) in the series with gram positive bacteria (setting [3]); 4 µg/mL (≈ 7.55 µM) in the series on gram positive bacteria (setting [4]); 64 µg/mL (≈ 121 µM) with gram negative bacteria (setting [5]); 32 µg/mL (≈ 60.4 µM) in the series on gram negative bacteria (setting [6]); 32 µg/mL (≈ 60.4 µM) with gram negative bacteria (setting [7]). Moreover, the MIC in the series with gram negative bacteria (setting [8]) turned out to be 64 µg/mL (≈ 121 µM). In addition, the IC50 at 24 h (in “in vitro”; in series [1]) was above 158 µM throughout. Also, the “Photo Toxicity UV Tox50” value with 3T3 fibroblast cells was above 157.68 µM. The “Photo Toxicity Dark Tox50” value in the series on 3T3 fibroblast cells was above 157.68 µM.

Consider `CC(C)N(CCNC(=O)c1cccc(-c2ccc(O)c3c2C[C@H]2C[C@H]4[C@H](N(C)C)C(O)=C(C(N)=O)C(=O)[C@@]4(O)C(O)=C2C3=O)c1)C(C)C` [T], for which the MIC amounted to 4 µg/mL (≈ 6.05 µM) in the series with gram positive bacteria (setting [2]); 0.13 µg/mL (≈ 0.197 µM) in the series with gram positive bacteria (setting [3]); 0.06 µg/mL (≈ 0.0908 µM) in the series with gram positive bacteria (setting [4]); 8 µg/mL (≈ 12.1 µM) with gram negative bacteria (setting [5]); 16 µg/mL (≈ 24.2 µM) with gram negative bacteria (setting [6]); 4 µg/mL (≈ 6.05 µM) with gram negative bacteria (setting [7]). Further, the MIC with gram negative bacteria (setting [8]) worked out at 64 µg/mL (≈ 96.9 µM). In addition, the IC50 at 24 h is 36.2 µM in “in vitro” and above 41.4 µM in series [1]. In addition, the “Photo Toxicity UV Tox50” value in the series on 3T3 fibroblast cells is above 133.57 µM. Besides, in the series on 3T3 fibroblast cells, the “Photo Toxicity Dark Tox50” value is above 133.57 µM.

The term MIC denotes the smallest concentration in the dilution series that meets the test's criterion for growth inhibition.
